Assay results reported in US20110306635A1, “PYRIDINE COMPOUNDS AS SUBTYPE SELECTIVE MODULATORS OF ALPHA2B AND /OR ALPHA 2C […]” (ALLERGAN ,INC., priority 2009, published 2011).
pEC50: −log10 of the molar value.

How the values were obtained:
Type in all cases: cell-based
[1] = target: T1, alpha 2B adrenergic receptor (Homo sapiens, UniProt P18089); test: RSAT (Receptor Selection and Amplification Technology) assay, alpha 2B; settings: for pEC50: cells expressing alpha 2B receptor alone, receptor-mediated growth response; for RSAT efficacy, Alpha 2B: relative efficacy compared to a standard full agonist (value in parentheses)
T1 construct: expressed in transfected cells
T1 sequence (P18089 1-450): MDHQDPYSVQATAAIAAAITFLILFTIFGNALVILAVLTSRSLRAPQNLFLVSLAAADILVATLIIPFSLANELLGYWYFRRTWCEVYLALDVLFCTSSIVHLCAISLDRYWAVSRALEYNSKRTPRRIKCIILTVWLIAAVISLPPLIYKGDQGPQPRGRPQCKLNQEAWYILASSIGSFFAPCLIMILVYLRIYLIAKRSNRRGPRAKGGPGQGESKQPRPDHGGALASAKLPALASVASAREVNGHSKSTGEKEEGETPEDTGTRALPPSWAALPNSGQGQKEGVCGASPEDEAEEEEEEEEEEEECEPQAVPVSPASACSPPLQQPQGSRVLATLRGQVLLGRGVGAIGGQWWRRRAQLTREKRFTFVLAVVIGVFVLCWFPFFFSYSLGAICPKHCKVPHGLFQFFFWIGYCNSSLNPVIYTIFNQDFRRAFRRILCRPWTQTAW
Procedure: (§1) The compounds were synthesized and tested for alpha adrenergic activity using the Receptor Selection and Amplification Technology (RSAT) assay (Messier et. al., 1995, Pharmacol. Toxicol. 76, pp. 308-311). Cells expressing each of the alpha-2 adrenergic receptors alone were incubated with the Compound 1 and a receptor-mediated growth response was measured. A compound's activity is expressed as its relative efficacy compared to a standard full agonist (see table). Compound of this invention activates alpha-2B and alpha-2C receptors.
(§2) The results of the RSAT assay with several exemplary compounds of the invention are disclosed in Table 1 below together with the chemical formulas of these exemplary compounds. EC50 values are nanomolar.

[2] = target: T2, alpha 2A adrenergic receptor (Homo sapiens, UniProt P08913); test: RSAT (Receptor Selection and Amplification Technology) assay, alpha 2A; settings: cells expressing alpha 2A receptor alone; receptor-mediated growth response
T2 construct: expressed in transfected cells
T2 sequence (P08913 1-465): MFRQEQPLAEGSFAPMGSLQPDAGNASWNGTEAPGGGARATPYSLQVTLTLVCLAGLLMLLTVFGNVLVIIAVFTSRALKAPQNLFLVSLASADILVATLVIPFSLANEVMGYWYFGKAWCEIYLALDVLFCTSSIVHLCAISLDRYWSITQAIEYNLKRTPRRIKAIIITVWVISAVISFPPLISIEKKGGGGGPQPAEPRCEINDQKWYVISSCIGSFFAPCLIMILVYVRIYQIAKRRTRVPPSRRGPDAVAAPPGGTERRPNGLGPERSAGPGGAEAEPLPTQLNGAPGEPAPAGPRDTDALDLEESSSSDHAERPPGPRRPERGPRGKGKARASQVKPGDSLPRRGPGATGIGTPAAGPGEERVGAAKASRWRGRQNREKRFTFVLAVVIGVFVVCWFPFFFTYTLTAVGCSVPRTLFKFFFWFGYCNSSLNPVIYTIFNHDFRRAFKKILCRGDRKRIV
Procedure: as §1, §2

[3] = target: T3, alpha 2C adrenergic receptor (Homo sapiens, UniProt P18825); test: RSAT (Receptor Selection and Amplification Technology) assay, alpha 2C; settings: for pEC50: cells expressing alpha 2C receptor alone, receptor-mediated growth response; for RSAT efficacy, Alpha 2C: relative efficacy compared to a standard full agonist (value in parentheses)
T3 construct: expressed in transfected cells
T3 sequence (P18825 1-462): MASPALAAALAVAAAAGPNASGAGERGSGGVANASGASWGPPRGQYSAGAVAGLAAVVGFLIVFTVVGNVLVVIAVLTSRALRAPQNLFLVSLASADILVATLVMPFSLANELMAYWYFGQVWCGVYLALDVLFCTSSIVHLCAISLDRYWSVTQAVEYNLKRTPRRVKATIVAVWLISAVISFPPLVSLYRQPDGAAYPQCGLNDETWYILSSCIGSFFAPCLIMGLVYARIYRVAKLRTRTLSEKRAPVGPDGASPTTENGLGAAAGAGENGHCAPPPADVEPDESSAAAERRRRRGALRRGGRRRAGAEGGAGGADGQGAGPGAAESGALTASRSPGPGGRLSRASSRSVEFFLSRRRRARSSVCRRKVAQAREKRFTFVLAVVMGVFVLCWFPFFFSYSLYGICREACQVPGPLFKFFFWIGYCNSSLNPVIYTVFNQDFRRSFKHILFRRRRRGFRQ
Procedure: as §1, §2

Row | Structure (SMILES) | pEC50 [1] | RSAT efficacy, Alpha 2B [1] | RSAT EC50 (nM); efficacy, Alpha 2A [2] | pEC50 [3] | RSAT efficacy, Alpha 2C [3]
1 | Cc1nccc(C(C)c2c[nH]cn2)c1C (stereo not shown) [4-(1-(1H-imidazol-4-yl)ethyl)-2,3-dimethylpyridine] | 7.78 | 0.99 | Not active | 5.89 | 0.35
2 | CC(c1c[nH]cn1)c1ccnc2c1CCCC2 (stereo not shown) [4-(1-(1H-imidazol-4-yl)ethyl)-5,6,7,8-tetrahydroquinoline] | 7.63 | 1.12 | Not active | 6.43 | 0.35
